Assay [1] deals with Trypanosoma brucei. The arrangement: method as in PMID 20360736. To be noted: cited from earlier work.
Assay [2] relates to Trypanosoma brucei N-myristoyltransferase (TbNMT). The note with it: cited from earlier work.
For assay [3], the system named is Trypanosoma brucei. To be noted: cited from earlier work.
Assay [4] deals with T1, L. major NMT (LmNMT) (Leishmania major, UniProt Q4Q5S8).
T1 construct: Recombinant LmNMT was expressed and purified as previously described; made in house
T1 sequence (Q4Q5S8 entry or part of it): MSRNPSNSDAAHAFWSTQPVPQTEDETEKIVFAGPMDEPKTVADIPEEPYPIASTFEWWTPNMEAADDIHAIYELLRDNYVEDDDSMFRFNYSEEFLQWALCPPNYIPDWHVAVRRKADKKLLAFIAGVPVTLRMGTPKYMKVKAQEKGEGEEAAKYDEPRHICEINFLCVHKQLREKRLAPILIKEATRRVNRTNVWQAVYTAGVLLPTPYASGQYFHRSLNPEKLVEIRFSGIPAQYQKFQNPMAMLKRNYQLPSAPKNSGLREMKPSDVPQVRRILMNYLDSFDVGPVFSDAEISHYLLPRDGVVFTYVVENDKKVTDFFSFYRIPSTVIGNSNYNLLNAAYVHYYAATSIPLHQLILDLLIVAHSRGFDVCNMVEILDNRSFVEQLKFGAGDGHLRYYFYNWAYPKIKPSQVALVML
Nature of the assay: LmNMT enzymatic assay (scintillation proximity, [3H]myristoyl-CoA, CAP5.5 peptide). The assay is classed as biochemical.

The test system of assay [5] is THP-1. Nature of the assay: THP-1 host cell toxicity in the intramacrophage assay. The assay is classed as cell-based. The method, then: (§1) These assays were carried out as previously described.[25],[36],[37]
In assay [6] the test system is L. donovani intracellular amastigotes. Nature of the assay: L. donovani intramacrophage (intracellular amastigote) assay. The assay is classed as cell-based, Leishmania donovani. To be noted: read-out: intramacrophage EC50. The method, then:
(§2) The clonal L. donovani cell line LdBOB (derived from MHOM/SD/62/1S-CL2D) was used in our in vitro compound screening and mechanism of action studies. Promastigotes were grown at 26 °C in modified M199 media with axenic amastigotes grown at 37 °C, as previously described.[35] All animal studies were carried using L. donovani (LV9; WHO designation: MHOM/ET/67/HU3).
as §1

For assay [7], the system named is L. donovani axenic amastigotes. Nature of the assay: L. donovani axenic amastigote compound sensitivity assay. The assay is classed as cell-based, Leishmania donovani. To be noted: read-out: axenic amastigote EC50. The method, then: as §2, §1
The test system of assay [8] is L. donovani promastigotes. Nature of the assay: L. donovani promastigote compound sensitivity assay. The assay is classed as cell-based, Leishmania donovani. The note with it: read-out: promastigote EC50. The method, then:
as §2, §1

In assay [9] the test system is L. donovani amastigotes (LV9). Nature of the assay: mouse model of VL (BALB/c mice infected with L. donovani LV9).
For assay [10], the system named is Vero cells. Nature of the assay: host Vero cell toxicity. Format: cell-based. To be noted: Chlorocebus sabaeus, read-out: EC50 against host Vero cells.
For assay [11], the system named is intracellular amastigote form of T. cruzi. Nature of the assay: T. cruzi intracellular amastigote assay. The assay is classed as cell-based. To be noted: Trypanosoma cruzi; read-out: EC50 against T. cruzi intracellular amastigotes.
Assay [12] addresses T2, human NMT (HsNMT) (Homo sapiens, UniProt P30419).
T2 sequence (P30419 1-496): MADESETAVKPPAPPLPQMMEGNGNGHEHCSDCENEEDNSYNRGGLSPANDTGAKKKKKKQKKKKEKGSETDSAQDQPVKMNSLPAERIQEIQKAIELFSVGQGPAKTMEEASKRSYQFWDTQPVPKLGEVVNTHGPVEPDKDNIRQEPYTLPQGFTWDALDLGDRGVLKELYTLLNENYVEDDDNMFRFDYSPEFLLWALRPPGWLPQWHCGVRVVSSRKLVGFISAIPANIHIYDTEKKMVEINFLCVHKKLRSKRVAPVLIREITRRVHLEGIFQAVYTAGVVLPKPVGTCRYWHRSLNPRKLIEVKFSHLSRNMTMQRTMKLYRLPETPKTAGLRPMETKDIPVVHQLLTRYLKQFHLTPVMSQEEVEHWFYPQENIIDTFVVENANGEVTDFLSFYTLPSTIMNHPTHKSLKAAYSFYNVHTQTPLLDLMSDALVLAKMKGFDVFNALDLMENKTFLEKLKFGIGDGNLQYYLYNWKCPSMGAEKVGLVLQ
Nature of the assay: counter-screen against human NMT. The assay is classed as biochemical. On the technique in general: A counterscreen serves to expose hits that act by an unwanted route or on another target.

[13] abbreviates: Homo sapiens, THP-1, read-out: THP-1 EC50.
The mark [14] stands for this setting: Homo sapiens, THP-1; read-out: THP-1 EC50.
Where [15] appears, read: Leishmania donovani, L. donovani intracellular amastigotes.
Where [16] appears, read: Leishmania donovani, L. donovani LdBOB.

Like-named read-outs stand apart in the source and are kept apart here. Some results are limits rather than exact numbers.

`Cc1nn(C)c(C)c1NS(=O)(=O)c1c(Cl)cc(-c2ccnc(N3CCNCC3)c2)cc1Cl` [DDD85646]: in assay [1], the “efficacy in mouse models of stage 1 HAT (in words)” value was “curative”. Also, the “inhibition of TbNMT (in words)” value in assay [2] was “low nM inhibitor”. Further, the “activity in the stage 2 HAT mouse model (in words)” value in assay [3] is on record as “not active”.

What is called IC50 is the concentration that inhibits the measured activity by half. In general, EC50 refers to the concentration giving half of the maximal effect. Turning to `Cc1nn(C)c(C)c1N[S+](=O)([O-])c1ccc(CCCC2CCNCC2)cc1` [compound 1], the IC50 in assay [4] (5 nM LmNMT, 0.5 μM CAP5.5, 0.125 μM myristoyl-CoA, read-out: LmNMT IC50) came out at 0.4 µM. The half-maximal effective concentration (EC50) in [5] (read-out: THP-1 EC50), in [6] (L. donovani intracellular amastigotes), in assay [7] (L. donovani LdBOB) and in assay [8] (L. donovani LdBOB) was greater than 50 µM in each case.

Regarding `Cc1nn(C)c(C)c1N(C(F)F)S(=O)(=O)c1c(Cl)cc(CCCC2CCN(C)CC2)cc1Cl` [compound 2], the EC50 in [5] (setting [13]) was 15.8 µM; in assay [6] (Leishmania donovani), 2.4 ± 0.8 µM; in assay [10] it was 5.1 µM; in assay [7] (Leishmania donovani), 0.2 ± 0.006 µM; in [11] it was 0.47 µM; in assay [8] (Leishmania donovani), 0.04 ± 0.001 µM. Further, the “reduction in liver parasite burden (LDU) versus vehicle” value (“reduction in liver parasite burden” for short) in assay [9] (50 mg kg^-1 orally b.i.d. for 5 days) is listed as 52%. The “efficacy in the stage 2 mouse model (in words)” value in assay [3] is listed as “moderate efficacy”.

Take `Cc1nn(C)c(C)c1N(C)S(=O)(=O)c1c(Cl)cc(CCCC2CCN(C)CC2)cc1Cl` [compound 3]: the EC50 is greater than 50 µM in assay [5] (setting [13]), 7.1 ± 1.1 µM in [6] (Leishmania donovani), 8.2 ± 0.6 µM in assay [7] (Leishmania donovani) and 0.07 ± 0.004 µM in assay [8] (Leishmania donovani).

`Cc1nn(C)c(C)c1N(C)S(=O)(=O)c1c(Cl)cc(N2CCN(C(=O)c3ccn[nH]3)CC2)cc1Cl` [compound 4, 4-(4-(1H-Pyrazole-5-carbonyl)piperazin-1-yl)-2,6-dichloro-N-methyl-N-(1,3,5-trimethyl-1H-pyrazol-4-yl)benzenesulfonamide]: the IC50 in assay [4] amounted to 0.03 µM; in assay [12], 0.02 µM. In addition, the EC50 is greater than 50 µM in assay [5] (setting [14]), greater than 50 µM in assay [6] (setting [15]), 2.7 ± 0.08 µM in [7] (setting [16]) and 18.3 ± 0.1 µM in assay [8] (setting [16]).

With `Cc1nn(C)c(C)c1N(C)S(=O)(=O)c1c(Cl)cc(N2CCN(C(=O)c3cnn(C)c3)CC2)cc1Cl` [compound 5, 2,6-Dichloro-N-methyl-4-(4-(1-methyl-1H-pyrazole-4-carbonyl)piperazin-1-yl)-N-(1,3,5-trimethyl-1H-pyrazol-4-yl)benzenesulfonamide], the IC50 in [4] and in assay [12] was 0.08 µM each time. The EC50 is greater than 50 µM in [5] (setting [14]), greater than 50 µM in assay [6] (setting [15]), 9.2 ± 0.4 µM in [7] (setting [16]) and 10 ± 0.4 µM in [8] (setting [16]).

For `Cc1nn(C)c(C)c1N(C)S(=O)(=O)c1c(Cl)cc(N2CCN(C(=O)c3cn[nH]c3)CC2)cc1Cl` [compound 6, 4-(4-(1H-Pyrazole-4-carbonyl)piperazin-1-yl)-2,6-dichloro-N-methyl-N-(1,3,5-trimethyl-1H-pyrazol-4-yl)benzenesulfonamide], the IC50 worked out at 0.06 µM in assay [4] and 0.1 µM in [12]. In addition, the EC50 in assay [5] (setting [14]), in [6] (setting [15]), in [7] (setting [16]) and in [8] (setting [16]) was greater than 50 µM throughout.

Regarding `Cc1nn(C)c(C)c1N(C)S(=O)(=O)c1c(Cl)cc(N2CCN(C(=O)c3cccnc3)CC2)cc1Cl` [compound 7, 2,6-Dichloro-N-methyl-4-(4-nicotinoylpiperazin-1-yl)-N-(1,3,5-trimethyl-1H-pyrazol-4-yl)benzenesulfonamide], the values for the IC50 in assay [4] and in assay [12] were 0.1 µM and 0.5 µM, respectively. In addition, the EC50 was greater than 50 µM in assay [5] (setting [14]), greater than 50 µM in [6] (setting [15]), 0.3 ± 0.01 µM in assay [7] (setting [16]) and 5.8 ± 0.4 µM in [8] (setting [16]).

`Cc1nn(C)c(C)c1N(C)S(=O)(=O)c1c(Cl)cc(N2CCN(C(=O)c3ccc(N)cc3)CC2)cc1Cl` [compound 8, 4-(4-(4-Aminobenzoyl)piperazin-1-yl)-2,6-dichloro-N-methyl-N-(1,3,5-trimethyl-1H-pyrazol-4-yl)benzenesulfonamide]: the concentration for half-maximal inhibition (IC50) was 0.03 µM in assay [4] and 0.008 µM in assay [12]. Besides, the EC50 in assay [5] (setting [14]) is greater than 50 µM; in assay [6] (setting [15]) it was greater than 50 µM; in [7] (setting [16]), 5.1 ± 0.2 µM; in [8] (setting [16]) it was 8.2 ± 0.5 µM.

In the case of `Cc1nn(C)c(C)c1N(C)S(=O)(=O)c1c(Cl)cc(N2CCN(C(=O)Cc3ccccc3)CC2)cc1Cl` [compound 9, 2,6-Dichloro-N-methyl-4-(4-(2-phenylacetyl)piperazin-1-yl)-N-(1,3,5-trimethyl-1H-pyrazol-4-yl)benzenesulfonamide], the IC50 in assay [4] came out at 10 µM; in [12] it was 6.3 µM. In addition, the “potency against LmNMT (in words)” value in assay [4] is “poor activity”. Further, the concentration for a half-maximal effect (EC50) in assay [5] (setting [14]) is greater than 50 µM; in assay [6] (setting [15]), 40.5 ± 13.4 µM; in [7] (setting [16]), 2.2 ± 0.03 µM; in [8] (setting [16]) it was 6.3 ± 0.3 µM.

`CCCCCCCCCCCCCCCCOP(=O)([O-])OCC[N+](C)(C)C` [miltefosine]: in assay [9] (30 mg kg^-1 orally q.d. for 5 days), the “reduction in liver parasite burden” value turned out to be 88%.

For the compound `O.O.O.O.O.O.O.O.O.O=C([O-])[C@@H]1[O][Sb](=[O])([O][Sb]2(=[O])[O][C@H]([C@H](O)CO)[C@H](O)[C@H](C(=O)[O-])[O]2)[O][C@H]([C@H](O)CO)[C@@H]1O.[Na+].[Na+].[Na+]` (some centres unmarked) [sodium stibogluconate], the “reduction in liver parasite burden” value in assay [9] (15 mg kg^-1 subcutaneous q.d. for 5 days) is recorded as 52%.

Source of the values: paper PMC6332449, “Pharmacological Validation of N-Myristoyltransferase as a Drug Target in Leishmania donovani” (ACS Infectious Diseases, 2018).
